In patent publication US11352329B2, “HIV protease inhibitors” (Gilead Sciences, Inc., priority 2017, dated 2022):
Like-named read-outs stand apart in the source and are kept apart here.

Tests used:
[1] = Liver microsomal stability, human; type: in vitro ADME; conditions: liver microsomes, read-out: Half-lives
Experimental: Test compounds and one control compound (verapamil) were tested in 3 different species in duplicate sets.
Test compound concentration: 1 uM; Protein concentration: 0.5 mg/mL (for dog, rat, and human liver microsomes); Cofactor: NADPH-Regenerating system (NRS) solution; Time-points: 2, 12, 25, 45, and 65 minutes.
Reaction Composition (in Each Incubation Well) Contains:
At an incubation temperature of 37° C., the reaction was started with addition of NADPH Regeneration System, at each time point, 25 uL of the reaction mixture was removed and added to a plate with 225 uL quenching solution (50% MeOH, 25% ACN, 25% H2O, and 200 nM labetalol as internal standard). After plates were vortexed, they were centrifuged for 30 minutes to remove proteins. About 100 μL supernatant was removed to a new plate and diluted with 150 μL water. About 20 μL of the mixture was injected into LC/MS/MS system to monitor the compound's response. In vitro measured t½ was used to calculate Clint values.

[2] = test system: HIV-1 (IIIB) in MT-4 cells; test: microbe, parasite or virus in culture; type: cell-based
[3] = Human immunodeficiency virus 1, IIIB, MT4, MT-4 cells

half-life at 1 uM [1] [h]	SMILES	EC50 [2, 3] [nM]	EC50 ([2]; MT-4 cells, read-out: MT4 EC50) [nM]
≥ 6.58	CC(C)(C)C[C@]1(c2ccc(-c3cnn(C(F)F)c3)cc2)NC(=N)N([C@H](COC(=O)N[C@@H]2C[C@H]2C(F)(F)F)c2ccc(Cl)c(-n3ncnc3C(F)F)c2)C1=O (single isomer, unassigned) [Compound 331]	–	–
–	CC(C)(C)C[C@]1(c2ccc(-c3cnn(C4CC4)c3)cc2)NC(=N)N([C@H](COC(=O)NC2(C(F)(F)F)CC2)c2ccc(Cl)c(-c3ncnn3C(F)F)c2)C1=O [Compound 164]	16.5	–
–	CC(C)(C)C[C@]1(c2ccc(-c3cnn(C(F)F)c3)c(F)c2)NC(=N)N([C@H](COC(=O)NCC(C)(F)F)c2ccc(Cl)c(-n3ncnc3C(F)F)c2)C1=O [Compound 299]	–	13
≥ 6.58	CC(C)(C#N)C[C@]1(c2ccc(-c3cnn(C(F)F)c3)cc2)NC(=N)N([C@H](COC(=O)NC2(C(F)(F)F)CC2)c2ccc(Cl)c(-n3ncnc3C(F)F)c2)C1=O [Compound 336]	74.7	–
–	[H]/N=C1\N[C@](CC(C)(C)C)(c2ccc(-c3cnn(C(F)F)c3)cc2F)C(=O)N1[C@H](COC(=O)NC1CC1)c1ccc(Cl)c(-c2ncn[nH]2)c1 [Compound 11]	–	35.5
–	CC(C)(C)C[C@]1(c2ccc3ncc(Br)cc3c2)NC(=N)N([C@H](COC(=O)NC(C)(C)C(F)F)c2ccc(Cl)c(-n3ncnc3C(F)F)c2)C1=O [Compound 327]	30.7	–
–	CC(C)(C)C[C@]1(c2ccc(-c3cnn(C(F)F)c3)cc2)NC(=N)N([C@H](COC(=O)NC2(C(F)(F)F)CC2)c2ccc(-n3ncnc3C(F)F)c(F)c2)C1=O [Compound 379]	134	–
–	CC(C)(C)C[C@]1(c2ccc(-c3cnccn3)cc2)NC(=N)N([C@H](COC(=O)NC2(C(F)(F)F)CC2)c2ccc(Cl)c(-c3ncn[nH]3)c2)C1=O [Compound 26]	–	102
–	CC(C)(C)C[C@]1(c2ccc(-c3cnn(C(F)F)c3)cc2)NC(=N)N([C@H](COC(=O)NC(C)(C)C(F)F)c2ccc(F)c(-c3ncnn3C(F)F)c2)C1=O [Compound 124]	65.3	–
≥ 6.58	CC(C)(C)C[C@]1(c2ccc(-c3cnn(C(F)F)c3)cc2)NC(=N)N([C@H](COC(=O)NC2CC2)c2ccc(Cl)c(-c3nccc(=O)[nH]3)c2)C1=O [Compound 17]	556	–
–	CC(C)(C)C[C@]1(c2ccc(-c3cn(C4CC4)nn3)cc2)NC(=N)N([C@H](COC(=O)NC2(C(F)(F)F)CC2)c2ccc(Cl)c(-n3ncnc3C(F)F)c2)C1=O [Compound 232]	18.2	–
≥ 6.58	CC(C)(C)C[C@]1(c2ccc(-c3cnn(C(F)F)c3)cc2)NC(=N)N([C@H](COC(=O)NC2(C(F)(F)F)CC2)c2ccc(F)c(-n3ncnc3C(F)F)c2)C1=O [Compound 380]	29.2	–
–	CC(C)(CC#N)C[C@]1(c2ccc(-c3cnn(C4CC4)n3)cc2)NC(=N)N([C@H](COC(=O)NC2(C(F)(F)F)CC2)c2ccc(Cl)c(-n3ncnc3C(F)F)c2)C1=O [Compound 362]	36.4	–
0.433 to 1.78	COC(=O)N[C@H](C(=O)N[C@@H](Cc1ccccc1)[C@@H](O)CN(Cc1ccc(-c2ccccn2)cc1)NC(=O)[C@@H](NC(=O)OC)C(C)(C)C)C(C)(C)C [atazanavir, methyl N-[(2S)-1-[2-[(2S,3S)-2-hydroxy-3-[[(2S)-2-(methoxycarbonylamino)-3,3-dimethylbutanoyl]amino]-4-phenylbutyl]-2-[(4-pyridin-2-ylphenyl)methyl]hydrazinyl]-3,3-dimethyl-1-oxobutan-2-yl]carbamate, reference compound]	–	–
–	CC(C)(C)C[C@]1(c2ccc(-c3cnn(C(C)(C)C)n3)cc2)NC(=N)N([C@H](COC(=O)NC2(C(F)(F)F)CC2)c2ccc(Cl)c(-n3ncnc3C(F)F)c2)C1=O [Compound 371]	26.7	–
